Measured values published in patent publication US9102675B2, “3-Cyanoaryl-1H-pyrrolo[2,3-B] pyridine derivatives” (MERCK PATENT GMBH, priority 2011, dated 2015).

Columns and labels:
[1] = test system: TBK1 + IKKε; test: TBK1 + IKKε cell assay: dose response inhibition of phospho-IRF3 @ Ser 386 in MDA-MB-468 cells after poly(I:C) stimulation; type: cell-based; conditions: Homo sapiens, MDA-MB-468, MDA-MB-468 cells, reference inhibitor, read-out: IC50 of reference inhibitor in phospho-IRF3 cell assay
Text: Dose response inhibition of phospho-IRF3 @ Ser 386 cell/MDAMB468/INH/PHOS/IMAG/pIRF3
Although TBK1 and IKKε are mainly known as key substances in the innate immune response, recent findings have indicated a role for TBK1 and IKKε in Ras-induced oncogenic transformation. TBK1 was identified as RaIB effector in the Ras-like (RaI)-guanine nucleotide exchange factor (GEF) pathway that is required for Ras-induced transformation. TBK1 directly activates IRF3 which, on phosphorylation, homodimerises and translocates to the nucleus, where it activates processes associated with inflammation, immune regulation, cell survival and proliferation.
This assay has been developed in order to assess the efficacy/potency of TBK1/IKKε inhibitor compounds based on the immunocytochemical detection of nucleus-localised phospho-IRF3, a target directly downstream of TBK1. Treatment with polyinosine-polycytidylic acid (poly(I:C), a synthetic analogue of double-stranded RNA (dsRNA), a molecular pattern associated with viral infection and recognised by Toll-like receptor 3 (TLR3) is used to induce TBK1/IKKε activity and IRF3 phosphorylation at Ser386.
Day 1: MDA-MB-468 cells are detached using HyQ-Tase, counted and sown into a 384-well plate with TC surface and clear bottom in a density of 10,000 cells per well in a total volume of 35 μl of complete medium. Alternatively, the cells are sown directly from frozen glass vials.
Day 2: The cells are pre-treated with inhibitor compounds for 1 h prior to poly(I:C) stimulation. After incubation for 2 h with poly(I:C), the cells are fixed in (para)formaldehyde (PFA) and permeabilised using methanol (MeOH). The cells are then blocked and incubated with an anti-pIRF3 antibody at 4° C. overnight.
Day 3: The primary antibody is washed off, an AlexaFluor488-conjugated secondary antibody is added, the cells are contrast-stained with propidium iodide, followed by image acquisition on an IMX ultra-high content reader.
Plating medium=culture medium: • RPMI 1640, Invitrogen #31870 • 10% of FCS, Invitrogen #10270-106 • 2 mM Glutamax, Invitrogen #35050-038 • 1 mM sodium pyruvate, Invitrogen #11360 • 1% of Pen/Strep • 37° C., 5% of CO2
Plates: 384-well bottom cell culture plates with black/clear bottom, Falcon #35 3962 or Greiner #781090
Subcultivation: HyQ-Tase, Thermo Scientific (HyClone) # SV30030.01
Poly(I:C) (LMW), Invitrogen # tlrl-picw (prepare 20 mg/ml stock solution in sterile PBS, denature 30 min 55° C. in a water bath, slowly cool to RT, store at −20° C. in aliquots)
a 10-point dose-response curve with MSC2119074A-4=BX-795 is included in each experiment
Formaldehyde (methanol-free, 16%, ultrapure EM grade), Polysciences #18814 (storage RT), final conc.: 4%
Goat serum, PAA # B15-035 (storage 4° C., long term −20° C.), final conc.: 10%
BSA (IgG- and protease-free, 30%), US-Biological # A1317 (storage 4° C., long term −20° C.), final conc.: 2%
Tween 20 detergent, Calbiochem #655204 (storage RT), (prepare 10% stock solution in water; final conc.: 0.1%)
Anti-pIRF-3 rabbit mAb, Epitomics #2526-B (storage −20° C.), final conc.: 1:2000 in PBS/2% of BSA
Alexa Fluor goat-anti-rabbit-488, Invitrogen # A11034 or # A11008 (storage 4° C., dark), final conc.: 1:2000 in PBS/2% of BSA/0.1% of Tween
Propidium iodide (PI), Fluka #81845, 1 mg/ml in H2O (storage 4° C., dark), final conc.: 0.2 μg/ml
(1) Sow 10,000 cells/well/35μof complete RPMI +10% FCS into 384-well bottom cell culture plates with black / clear bottom,
(2) Incubate for 2 h at room temperature on the bench, followed by further incubation for 22 h at 37° C., 5% of CO2 and 90% RH. […]

[2] = biological target: T1, TANK binding kinase (TBK1) (Homo sapiens, UniProt Q9UHD2); test: TBK1 enzyme assay (384-well flashplate kinase assay); type: biochemical; conditions: 10 μM ATP, 0.6 nM TBK1
T1 sequence (Q9UHD2 1-729): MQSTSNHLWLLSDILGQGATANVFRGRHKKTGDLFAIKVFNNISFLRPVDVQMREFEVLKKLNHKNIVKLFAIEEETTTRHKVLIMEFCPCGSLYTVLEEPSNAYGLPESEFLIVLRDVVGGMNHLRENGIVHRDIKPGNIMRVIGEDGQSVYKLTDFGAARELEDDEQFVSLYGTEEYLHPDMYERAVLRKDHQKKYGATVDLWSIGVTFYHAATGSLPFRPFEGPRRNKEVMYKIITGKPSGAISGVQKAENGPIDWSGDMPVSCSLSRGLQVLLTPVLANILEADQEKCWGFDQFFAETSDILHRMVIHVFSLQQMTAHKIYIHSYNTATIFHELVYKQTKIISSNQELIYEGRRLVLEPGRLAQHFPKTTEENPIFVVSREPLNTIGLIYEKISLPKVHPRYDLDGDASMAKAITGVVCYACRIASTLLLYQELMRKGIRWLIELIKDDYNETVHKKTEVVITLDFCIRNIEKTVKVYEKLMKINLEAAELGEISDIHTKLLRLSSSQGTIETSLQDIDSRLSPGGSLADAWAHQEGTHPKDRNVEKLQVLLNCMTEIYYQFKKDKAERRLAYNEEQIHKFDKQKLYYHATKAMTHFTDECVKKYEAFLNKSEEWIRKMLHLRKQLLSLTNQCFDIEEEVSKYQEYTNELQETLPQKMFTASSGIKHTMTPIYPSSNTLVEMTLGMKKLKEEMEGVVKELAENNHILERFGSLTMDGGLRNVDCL
Procedure: Test for the Inhibition of TBK1
(§1) The kinase assay is performed as 384-well flashplate assay (for example for Topcount measurement).
0.6 nM TANK binding kinase (TBK1), 800 nM biotinylated MELK-derived peptide (biotin-Ah-Ah-[…]) and 10 μM ATP (spiked with 0.25 μCi of ^33P-ATP/well) are incubated at 30° C. for 120 min in a total volume of 50 μl (10 mM MOPS, 10 mM Mg acetate, 0.1 mM EGTA, 1 mM DTT, 0.02% of Brij35, 0.1% of BSA, pH 7.5) with or without test compound. The reaction is stopped with 25 μl of 200 mM EDTA. After 30 min at room temperature, the liquid is removed, and each well is washed three times with 100 μl of 0.9% sodium chloride solution. Non-specific reaction is measured in the presence of 100 nM staurosporine. The radioactivity is measured in a Topcount (PerkinElmer). The results (for example IC50 values) are calculated using program tools provided by the IT Department (for example Assay-Explorer, Symyx). Cell Test

[3] = biological target: T2, IKKε (Homo sapiens, UniProt Q14164); test: IKKε kinase assay (384-well flashplate assay); type: biochemical; conditions: 10 μM ATP, 1 nM IKKε; read-out: IKKε enzyme assay IC50
T2 sequence (Q14164 1-716): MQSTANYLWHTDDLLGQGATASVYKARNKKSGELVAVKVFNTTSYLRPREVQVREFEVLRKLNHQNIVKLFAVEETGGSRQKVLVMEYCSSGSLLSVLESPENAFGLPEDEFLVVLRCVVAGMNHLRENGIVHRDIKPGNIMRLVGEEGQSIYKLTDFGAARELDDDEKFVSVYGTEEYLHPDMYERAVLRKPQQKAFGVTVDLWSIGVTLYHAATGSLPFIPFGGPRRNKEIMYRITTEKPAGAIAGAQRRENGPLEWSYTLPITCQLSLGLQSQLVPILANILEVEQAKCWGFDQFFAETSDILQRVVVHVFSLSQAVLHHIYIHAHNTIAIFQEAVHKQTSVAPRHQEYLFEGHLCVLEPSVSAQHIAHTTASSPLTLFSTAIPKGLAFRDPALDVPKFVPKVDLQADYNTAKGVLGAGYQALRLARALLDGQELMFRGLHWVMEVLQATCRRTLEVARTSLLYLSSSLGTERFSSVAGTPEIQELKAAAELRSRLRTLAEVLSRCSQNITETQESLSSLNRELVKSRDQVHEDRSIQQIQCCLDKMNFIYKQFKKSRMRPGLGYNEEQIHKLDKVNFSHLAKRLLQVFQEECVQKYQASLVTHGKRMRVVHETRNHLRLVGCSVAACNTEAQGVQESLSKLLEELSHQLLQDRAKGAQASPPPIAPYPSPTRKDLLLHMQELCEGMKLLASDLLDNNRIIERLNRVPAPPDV
Procedure: Test for the Inhibition of IKKε
IKKε—Kinase Assay (IKKepsilon)
as §1
1 nM IKKε, 800 nM biotinylated IκKα(19-42) peptide (Biotin-C6-C6-[…]) and 10 μM ATP (spiked with 0.3 μCi of ^33P-ATP/well) are incubated at 30° C. for 2 hours in a total volume of 50 μl (10 mM MOPS, 10 mM Mg acetate, 0.1 mM EGTA, 1 mM dithiothreitol, 0.02% of Brij35, 0.1% of BSA, 0.1% of BioStab, pH 7.5) with or without test compound. The reaction is stopped using 25 μl of 200 mM EDTA. After 30 min at room temperature, the liquid is removed, and each well is washed three times with 100 μl of 0.9% sodium chloride solution. Non-specific reaction is determined in the presence of 3 μM MSC2119074 (BX-795). The radioactivity is measured using a Topcount (Perkin Elmer). The results (for example IC50 values) are calculated using program tools provided by the IT Department (for example AssayExplorer, Symyx).

| SMILES | IC50 [1] | IC50 [2] | IC50 [3] |
| --- | --- | --- | --- |
| O=C(NCCCNc1nc(Nc2cccc(NC(=O)N3CCCC3)c2)ncc1I)c1cccs1 [BX-795, reference compound] | 0.2 to 0.8 µM |  |  |
| COc1ccnc2[nH]cc(-c3ccc(OC4CCOCC4)c(C#N)c3)c12 [Compound A2, 5-(4-methoxy-1H-pyrrolo[2,3-b]pyridin-3-yl)-2-tetrahydropyran-4-yloxybenzonitrile] |  | 0.3 to 3 µM | 0.3 to 3 µM |
| COc1ccc2c(-c3ccc(OC4CCOCC4)c(C#N)c3)c[nH]c2n1 [Compound A3, 5-(6-methoxy-1H-pyrrolo[2,3-b]pyridin-3-yl)-2-tetrahydropyran-4-yloxybenzonitrile] |  | 3 to 50 µM | 3 to 50 µM |
| N#Cc1cc(-c2c[nH]c3ncc(Br)cc23)ccc1OC1CCOCC1 [Compound A5, 5-(5-bromo-1H-pyrrolo[2,3-b]pyridin-3-yl)-2-tetrahydropyran-4-yl-oxy-benzonitrile] |  | 3 to 50 µM | 3 to 50 µM |
| N#Cc1ccc(-c2cnc3[nH]cc(-c4ccc(OC5CCOCC5)c(C#N)c4)c3c2)cc1 [Compound A6, 5-[5-(4-cyanophenyl)-1H-pyrrolo[2,3-b]pyridin-3-yl]-2-tetrahydropyran-4-yloxybenzonitrile] |  | < 0.3 µM | 0.3 to 3 µM |
| Cc1[nH]c2ncc(-c3cnn(C)c3)cc2c1-c1ccc(OC2CCOCC2)c(C#N)c1 [Compound A11, 5-[2-methyl-5-(1-methylpyrazol-4-yl)-1H-pyrrolo[2,3-b]pyridin-3-yl]-2-tetrahydropyran-4-yloxybenzonitrile] |  | < 0.3 µM | 0.3 to 3 µM |
| N#Cc1cc(-c2c[nH]c3ncc(Br)cc23)ccc1OCC1CC1 [Compound A14, 5-(5-bromo-1H-pyrrolo[2,3-b]pyridin-3-yl)-2-(cyclopropylmethoxy)benzonitrile] |  | 3 to 50 µM | 3 to 50 µM |
| N#Cc1cc(-c2c[nH]c3ncc(-c4cnn(C5CCN(S(=O)(=O)c6ccccc6)CC5)c4)cc23)cnc1OC1CCOCC1 [Compound A19, 5-[5-[1-[1-(benzenesulfonyl)-4-piperidyl]pyrazol-4-yl]-1H-pyrrolo[2,3-b]pyridin-3-yl]-2-tetrahydropyran-4-yloxypyridine-3-carbonitrile] |  | 0.3 to 3 µM | 0.3 to 3 µM |
